We go through five molecules from patent publication EP0302626A2, “Insecticidal compounds” (IMPERIAL CHEMICAL INDUSTRIES PLC, priority 1987, dated 1989).

Holding throughout (assay type): in vivo
Series [1] deals with Tetranychus urticae (spider mites - adult). In words: insecticidal mortality test, contact, French bean leaf. The following applies: for mortality at 100 ppm: read-out: grading of mortality, Tua, 100 ppm, 3 days. As for the experimental part: (§1) The activity of the Product was determined using a variety of insect pests. The Product was used in the form of liquid preparations containing 500, 250 or 100 parts per million (ppm) by weight of the Product. The preparations were made by dissolving the Product in acetone and diluting the solutions with water containing 0.01% by weight of a wetting agent sold under the trade name "LlSSAPOL" NX until the liquid preparations contained the required concentration of the Product. "Lissapol" is a Registered Trade Mark.
(§2) The test procedure adopted with regard to each pest was basically the same and comprised supporting a number of the pests on a medium which was usually a host plant or a foodstuff on which the pests feed, and treating either or both the pests and the medium with the preparations. The mortality of the pests was then assessed at periods usually varying from one to three days after the treatment.
(§3) The results of the tests are given in Table III for each of the Products, at the rate in parts per million given in the second column as a grading of mortality designated as A, B or C wherein A indicates 80-100% mortality, B indicates 50-79% mortality and C indicates less than 50% mortality.
(§4) In Table 111 the pest organism used is designated by a letter code and the pests species, the support medium or food, and the type and duration of test is given in Table II.

For series [2], the system named is Diabrotica balteata (rootworm larvae). The series is described as follows: insecticidal mortality test, residual, filter paper/maize seed. As to conditions: read-out: grading of mortality, DB. As for the experimental part: as §1, §2, §3, §4
Series [3] relates to Nephotettix cincticeps (green leaf hopper - nymphs). In words: insecticidal mortality test, contact, rice plant. The following applies: 100 ppm, contact, rice plant, read-out: grading of mortality, NC. As for the experimental part:
as §1, §2, §3, §4

The subject of the next series is Myzus persicae (aphids). In words: insecticidal mortality test, contact, Chinese Cabbage leaf. As to conditions: 72 h, read-out: grading of mortality, MP. As for the experimental part:
as §1, §2, §3, §4

Series [4] deals with Musca domestica (adult females). The series is described as follows: Musca domestica knockdown test. As to conditions: 1 cm3 of 30 ppm solution in acetone, Kearns and March chamber, 20 adult females, observed over 10 minutes; average of 2 replicates (* single replicate, ** average of 7 tests). As for the experimental part: 1 cm³ Of a 30 ppm solution of the test chemical in acetone was sprayed into a Kearns and March chamber containing 20 Musca domestica (adult females). Knockdown was observed over a period of 10 minutes and KT₅₀ and KT₉₀ values (the time taken for 50% and 90% of the insects to be knocked down) were calculated from the observations. The results given in Table V represent average KT values of 2 replicates except where otherwise stated.

The test system of series [5] is Heliothis virescens (tobacco budworm - larvae). The series is described as follows: insecticidal mortality test, residual, cotton leaf. The following applies: residual, cotton leaf, read-out: grading of mortality, HV. As for the experimental part:
as §1, §2, §3, §4

Series [6] deals with Spodoptera exigua (lesser army worm - larvae). In words: insecticidal mortality test, residual, cotton leaf. The following applies: read-out: grading of mortality, SP. As for the experimental part:
as §1, §2, §3, §4

For series [7], the system named is Blattella germanica (adult males). The series is described as follows: Blattella germanica knockdown test. As to conditions: for mortality at 250 ppm / pest or weed control at 250 ppm: Blattella germanica; for mortality at 250 ppm: 48 h; for mortality at 250 ppm / % MORTALITY 48 hrs: insects held at 25°C and 65% relative humidity for 48 hours; for pest or weed control at 250 ppm: topical, Tetramethrin: mean of 27 observations; for % MORTALITY 48 hrs: 2880 min. As for the experimental part: The test compound was dissolved in acetone (2 cm³) and the solution diluted to a concentration of 250 ppm with kerosene. 1 cm³ Of this preparation was sprayed onto 10 Blattella germanica (adult males) held in a netted plastic pot in a Burkhard potter Tower. Assessment of knockdown was performed at intervals of 5 minutes up to a total of 20 minutes. On removal from the Burkhard Potter Tower, the insects were held at 25°C and 65% relative humidity for 48 hours, and an assessment of mortality performed. Each test was repeated.
In some tests, additional knockdown assessment was performed at intervals of 1, 2, 3 and 4 minutes, and KT₅₀ and KT₉₀ values determined (the time taken, in minutes, to knockdown 50% and 90% respectively of test insects).

In series [8] the test system is Musca domestica (houseflies - adults). In words: insecticidal mortality test, contact, cotton wool/sugar. As to conditions: read-out: grading of mortality, MD. As for the experimental part:
as §1, §2, §3, §4

The test system of series [9] is Blattella germanica (cockroach nymphs). In words: insecticidal mortality test, residual, plastic pot. As to conditions: 72 h, read-out: grading of mortality, BG. As for the experimental part:
as §1, §2, §3, §4

Setting [10] is: 250 ppm spray, tests 1 and 2 are repeats, read-out: % MORTALITY 48 hrs.
Where [11] appears, read: 5 min, 250 ppm in kerosene, 1 cm3 sprayed onto 10 adult males, 5 min, tests 1 and 2 are repeats, read-out: % KNOCKDOWN OBSERVED 5 min.
Where [12] appears, read: 48 h, test duration of 2 days (footnote +).
Setting [13] is: 10 min, 250 ppm in kerosene, 1 cm3 sprayed onto 10 adult males, 10 min, tests 1 and 2 are repeats, read-out: % KNOCKDOWN OBSERVED 10 min.
Where [14] appears, read: 250 ppm in kerosene, 1 cm3 sprayed onto 10 adult males, tests 1 and 2 are repeats.
Setting [15] is: 250 ppm spray, tests 1 and 2 are repeats.

Several values for one entry are separate records, joined by “and”; a condition that tells them apart may be missing. Equal entries are not always repeated. Where two headings read alike, the source gives them in different places. Marks after values point to notes of the source that are not given here.

In general, mortality refers to the percentage killed. In the case of `CC1(C)C(C=C(Cl)C(F)(F)F)C1C(=O)OCc1c(F)c(F)c(CCl)c(F)c1F` (racemic) [Product III, 4-(chloromethyl)-2,3,5,6-tetrafluorobenzyl (1RS,cis)-3-(Z-2-chloro-3,3,3-trifluoroprop-1-en-1-yl)-2,2-dimethylcyclopropanecarboxylate], the mortality at 100 ppm in [1] (Tetranychus urticae, 72 h) lay within 80 to 100%; in series [2] (72 h), 80 to 100%; in [3] (72 h, 3 days), 80 to 100%; in the series on Myzus persicae (aphids) it was 80 to 100%; in series [5] (72 h, 3 days), 80 to 100%; in series [6] (72 h), 80 to 100%. Moreover, the mortality at 100 ppm is under 50% in series [8] (24 h) and 80 to 100% in series [9]. Besides, the KT₅₀ in series [4] was determined as 10 min. Besides, the KT₉₀ in series [4] came out at 10 min. The mortality at 250 ppm in series [7] (setting [10]) turned out to be 100%. For the same molecule, the pest or weed control at 250 ppm in [7] (setting [11]) was 100%.
On to `CC1(C)C(C=C(Cl)C(F)(F)F)C1C(=O)OCc1c(F)c(F)c(COC=O)c(F)c1F` (racemic) [Product IX, 4-(Formyloxymethyl)-2,3,5,6-tetrafluoromethyl (1RS, trans)-3-(Z-2-chloro-3,3,3-trifluoroprop-1-en-1-yl)-2,2-dimethylcyclopropanecarboxylate], for which the “grading of mortality, Tua” value in series [1] (100 ppm, 3 days, listed as IX, 4320 min) is recorded as “C (C indicates less than 50% mortality)”. Also, the mortality at 100 ppm is under 50% in [2] (48 h); 80 to 100% in series [3] (setting [12]); 80 to 100% with Myzus persicae (aphids); 80 to 100% in [5] (setting [12]); 80 to 100% in series [6] (48 h); under 50% in series [8] (72 h). In series [9], the mortality at 100 ppm is 80 to 100%. For the same molecule, the KT₅₀ in [4] was 10* mins. For the same molecule, in [4], the KT₉₀ was 10* mins. Moreover, the mortality at 250 ppm in [7] (setting [10]) came to 100%. In series [7] (setting [13]), the pest or weed control at 250 ppm was found to be 100%.
For the molecule `CC(=O)SCc1c(F)c(F)c(COC(=O)[C@@H]2[C@@H](/C=C(\Cl)C(F)(F)F)C2(C)C)c(F)c1F` (racemic) [Product XXVII, 4-(acetylthiomethyl)-2,3,5,6-tetrafluorobenzyl (1RS, trans)-3-(Z-2-chloro-3,3,3-trifluoroprop-1-en-1-yl)-2,2-dimethylcyclopropanecarboxylate], the mortality at 100 ppm in series [1] (Tetranychus urticae, 72 h) was in the range of 80 to 100%; in series [2] (48 h), 80 to 100%; in [3] (setting [12]), 80 to 100%; in the series on Myzus persicae (aphids) it was 80 to 100%; in series [5] (setting [12]), 80 to 100%; in [6] (48 h), 80 to 100%. The mortality at 100 ppm is 80 to 100% in series [8] (72 h) and under 50% in series [9]. Also, the “% KNOCKDOWN OBSERVED 15 min” value in series [7] (setting [14]) came to 40%. Further, in [7] (250 ppm in kerosene, 1 cm3 sprayed onto 10 adult males, 20 min, tests 1 and 2 are repeats), the “% KNOCKDOWN OBSERVED 20 min” value is reported as 40%. In [7] (setting [15]), the “% MORTALITY 48 hrs” value turned out to be 80%. Besides, the mortality at 250 ppm in series [7] (setting [10]) was found to be 100%.
For the molecule `CC=NNc1c(F)c(F)c(COC(=O)C2C(C=C(Cl)C(F)(F)F)C2(C)C)c(F)c1F` (stereo not drawn) [Product XIV, E/Z-4-(ethylidenehydrazino)-2,3,5,6-tetrafluorobenzyl (1RS, cis)-3-(Z-2-chloro-3,3,3-trifluoroprop-1-en-1-yl)-2,2-dimethylcyclopropanecarboxylate], the mortality at 500 ppm was under 50% in [1] (Tetranychus urticae, 72 h, read-out: grading of mortality, Tua, 500 ppm, 3 days); 80 to 100% in series [2] (72 h); 80 to 100% in the series on Myzus persicae (aphids); 80 to 100% in series [5] (72 h, 500 ppm, 3 days); 80 to 100% in [8] (24 h); 80 to 100% in series [9]. Also, in [4], the KT₅₀ amounted to 6.6 min. Besides, the KT₉₀ in series [4] was 9.4 min. Besides, in series [7] (setting [14]), the “% KNOCKDOWN OBSERVED 15 min” value came to 100%. For the same molecule, the “% MORTALITY 48 hrs” value in [7] (setting [15]) is 50% and 90%.
On to `CC(C)=CC1C(C(=O)OCN2C(=O)C3=C(CCCC3)C2=O)C1(C)C` (centres unmarked) [Tetramethrin, reference compound], for which the KT₅₀ is reported as 4.0** mins in [4] and 1.7** mins in [7] (250 ppm spray, time taken to knockdown 50% of test insects, Tetramethrin: mean of 3 assessments). Moreover, the KT₉₀ is 7.5** mins in series [4] and 3.2** mins in series [7] (250 ppm spray, time taken to knockdown 90% of test insects, Tetramethrin: mean of 3 assessments). For the same molecule, the mortality at 250 ppm in series [7] (read-out: % MORTALITY 48 hrs, 250 ppm spray, tests 1 and 2 are repeats) was 50%. In addition, the pest or weed control at 250 ppm in series [7] (setting [11]) came out at 80%; in [7] (setting [13]) it was 100%.
